Reference: patent publication US10766912B2 (priority 2017, dated 2020)

Key:
[1] = system: HCV GT1b/5a NS5A chimeric replicon; experiment: Assay Example 2: activity against GT1b/5a NS5A chimeric replicon; type: cell-based; details: Hepatitis C virus, Huh-7, 72 h, read-out: EC50 Value GT1b/5a-NS5A-wt
Experimental: Cells: Huh-7 cells are liver cancer cell strains (from AppTec, USA), HCV GT1a and GT1b wild type (wt) replicons, GT1b/3a, GT1b/4a, GT1b/5a and GT1b/6a NS5A chimeric replicons.
Treatment of Compound: According to the assay final concentrations of the compounds in Table 5, DMSO stock solutions of the compounds were diluted and then added to a 96-well assay plate. The final concentration of DMSO was 0.5%.
The preparation of cells: After replicon plasmid DNA was linearized with a corresponding restriction enzyme, the DNA was transcribed into RNA by using T7 RNA polymerase. Replicon RNA prepared by transcription in vitro was transfected into Huh-7 cells by electroporation. Transfected cells were seeded at a density of 10,000 cells per well into the 96-well assay plate containing the diluted compounds, and then placed in a 37° C. incubator with 5% CO2 and cultured for 3 days.
Drug activity assay: Luminescence signal value (RLU) was detected with Envision within 15 minutes using the luciferase assay reagent Britelite plus, and the original data (RLU) was used for the calculation of the activity of the compounds.
The cytotoxicity of the compounds was calculated by using the equation below: Cell Viability %=(CPD−HPE)/(ZPE−HPE)×100%* The activity of the compounds was calculated by using the equation below: Inhibition %=(ZPE−CPD)/(ZPE−HPE)×100%*
The cell viability percentages (Viability %) and the inhibition percentages (Inhibition %) were imported into GraphPad Prism software, respectively, and curves were fitted by using nonlinear regression method to obtain the corresponding curves of the compounds, and the cytotoxicity (CC50) thereof and the inhibitory activity (EC50) values against the HCV replicon thereof.

[2] = Assay Example 3: parallel cytotoxicity assay (alamarBlue) without viral infection; type: cell-based; details: human, Huh7.5.1 cells without viral infection, no viral infection, read-out: CC50 Value HCVcc
Experimental: Cells: Huh7.5.1 cells and hepatitis C virus HCVcc (GT2a, JFH-1) infection system.
Treatment of Compound: According to the assay final concentrations of the compounds in Table 6, DMSO stock solutions of the compounds were diluted and then added to a 96-well assay plate. The final concentration of DMSO was 0.5%.
Viral infection: Huh7.5.1 cells were seeded in a 96-well cell culture plate, and the cells were cultured overnight at 37° C. in an incubator with 5% CO2 for later use. The compound and the HCVcc virus solution (MOI=0.1) were simultaneously added to the cells, and the virus infection was cultured for 3 days. Parallel cytotoxicity assay was identical to the method for the inhibition of the virus but without viral infection.
Cell viability assay: Cell viability was detected by the addition of alamarBlue assay reagent. The original data (RFU) was used for the calculation of the cytotoxicity of the compounds.
The cytotoxicity of the compounds was calculated by using the equation below: Cell Viability %=CPD/CC×100%*
The cell viability percentages (Cell Viability %) and the compound activity percentages (Inhibition %) were imported into GraphPad Prism software, respectively, and curves were fitted by using nonlinear regression method to obtain the corresponding curves of the compounds, and the cytotoxicity (CC50) thereof and inhibitory activity (EC50) values against the HCV replicon thereof.

[3] = Assay Example 4: distribution in rat plasma and liver tissue; type: in vivo; details: 10 mg/kg intragastric; for Kp at 0.5 h / Kp at 3 h / Kp at 8 h: male, oral, liver/plasma, read-out: Ratio (L/P)
Experimental: (§1) Eighteen male rats were randomly divided into two groups of 9 rats each, fasted (free access to water) overnight, and then intragastrically administered with 10 mg/kg of Compound 1a and Compound 6b, respectively. The subject animals were sacrificed by bloodletting at 0.5 h, 3 h and 8 h after administration. About 1 mL of blood was taken, and anticoagulated with EDTA-K2. The blood samples were immediately placed in ice, and then transferred within 30 min to centrifuge and separate plasma at 4° C. and 4,000 rpm for 10 min. Meanwhile, the whole liver was taken out at the various time points, rinsed with ice-cold physiological saline, blotted dry, weighed, and prepared into a homogenate with physiological saline (W/V=1:5). All plasma and liver homogenates were collected and then immediately stored at −20° C. for testing.
The rats can be fed at 4 h after administration.
(§2) After being completely melted, all the samples were vortexed to mix evenly. 50 μL of the samples were pipetted into a 1.5 mL centrifuge tube respectively and then 300 μL of IS-D (20 ng/ml diazepam acetonitrile) solution was added to each sample (200 μL of acetonitrile was added to the blank sample). The samples were vortexed for 10 min and then centrifuged at 12,000 rpm and 4° C. for 10 min. After 80 μL of pure water was added to a 96-well plate, 80 μL of the supernatants were pipetted respectively from the centrifuge tubes to the 96-well plate, vortexed for 3 min, and then kept at 4° C. until LC-MS/MS injection analysis.

[4] = Assay Example 5: distribution in mouse plasma and liver tissue; type: in vivo; details: 10 mg/kg intragastric; for Kp at 0.5 h / Kp at 3 h / Kp at 8 h: male, oral, liver/plasma, read-out: Ratio (L/P)
Experimental: as §1, with “mice” for “rats”, “groups,” for “groups of 9 rats each,”
The mice can be fed at 4 h after administration.
as §2, with “200” for “300”

Row | SMILES | EC50 [1] [pM] | CC50 at 3 days [2] [pM] | Liver concentration ([3]; 0.5 h) | Plasma concentration ([3]; 0.5 h) | Liver concentration ([3]; 3 h) | Plasma concentration ([3]; 3 h) | Liver concentration ([3]; 8 h) | Plasma concentration ([3]; 8 h) | Kp at 0.5 h ([3]; 0.5 h) | Kp at 3 h ([3]; 3 h) | Kp at 8 h ([3]; 8 h) | Liver concentration ([4]; 0.5 h) | Plasma concentration ([4]; 0.5 h) | Liver concentration ([4]; 3 h) | Plasma concentration ([4]; 3 h) | Liver concentration ([4]; 8 h) | Plasma concentration ([4]; 8 h) | Kp at 0.5 h ([4]; 0.5 h) | Kp at 3 h ([4]; 3 h) | Kp at 8 h ([4]; 8 h)
1 | COC(=O)N[C@H](C(=O)N1CCC[C@H]1C(=O)Nc1ccc([C@H]2CC[C@H](c3ccc4nc([C@@H]5CCCN5C(=O)[C@@H](NC(=O)OC)[C@@H](C)OC)[nH]c4c3)N2c2cc(F)c(N3CC[Si](C)(C)CC3)c(F)c2)cc1)[C@@H](C)OC [Compound 6b] | 4.32 | > 100 | 212 ± 57.2 | 19.8 ± 8.31 | 495 ± 171 | 34.8 ± 14.7 | 77.5 ± 20.6 | 5.82 ± 0.99 | 10.7 | 14.2 | 13.3 | 401 ± 116 | 226 ± 66 | 960 ± 530 | 464 ± 363.3 | 18 ± 1 | 10 ± 5.8 | 1.78 | 2.07 | 1.76
2 | COC(=O)N[C@H](C(=O)N1CCC[C@H]1C(=O)Nc1ccc([C@@H]2CC[C@@H](c3ccc(NC(=O)[C@@H]4CCCN4C(=O)[C@@H](NC(=O)OC)[C@@H](C)OC)cc3)N2c2cc(F)c(N3CC[Si](C)(C)CC3)c(F)c2)cc1)[C@@H](C)OC [Compound 1a, Methyl ((2S,2′S,3R,3′R)-((2S,2′S)-(((((2S,5S)-1-(4-(4,4-dimethylazasilinan-1-yl)-3,5-difluorophenyl)pyrrolidin-2,5-diyl)bis(4,1-phenylene))bis(azanediyl))bis(carbonyl))bis(pyrrolidin-2,1-diyl))bis(3-methoxy-1-oxobutan-1,2-diyl))dicarbamate] | 1.62 | > 100 | 384 ± 121 | 54.7 ± 7.82 | 1711 ± 485 | 70.1 ± 20.6 | 1087 ± 822 | 59 ± 33.7 | 7.01 | 24.4 | 18.4 | 337 ± 33.1 | 139 ± 16.9 | 2644 ± 147.3 | 384 ± 81 | 334 ± 73.9 | 59 ± 7.8 | 2.43 | 6.89 | 5.67
